Results reported in paper PMC10759609, “A novel PDPN antagonist peptide CY12-RP2 inhibits melanoma growth via Wnt/β-catenin and modulates the immune cells” (Journal of Experimental & Clinical Cancer Research : CR, 2024).
Peptide text beside a SMILES is read from it.

Key:
[1] = Serum hepatic function index, xenograft nude mice (ELISA); format: in vivo, BALB/c nude mice; details: vs control, 25 and 100 mg/kg
Method: (§1) Tumorigenesis assays were conducted in vivo using BALB/c nude mice and BALB/c mice from Guangdong Medical Laboratory Animal Center. The animal study was reviewed and approved by the Administrative Committee on Animal Research of Shenzhen International Graduate School, Tsinghua University (Ethical Development No. 16, 10 November 2021). Samples with 5 × 10^5 A375 or B16F10-Luc melanoma cells were diluted in 100 μL PBS and injected subcutaneously into 6- to 8-week-old female BALB/c nude mice or BALB/c mice. 5 days later, the mice were treated with CY12-RP2 by tail vein administration at various doses (25 mg/kg and 100 mg/kg) every two days. The tumor volume and body weight were measured every 2 days, with the calculation of the tumor volume under the assumption of an ellipsoidal tumor as: tumor volume = length × width^2/2. Tumors from BALB/c nude mice were collected and photographed on day 21, while tumors from the allograft mouse model were measured using bioluminescence imaging. The blood collected from the eyes of BALB/c nude mice were stored at 4 °C for 24 h and then centrifuged for 15 min under the indicated conditions (4 °C, 3000 rpm). The supernatant was collected and assayed for drug toxicity using kits, including AST, ALT, TG, and γ-GT. […]
Fig. S5: Effects and toxicity of CY12-RP2 in vivo […]
(E) Serum ALT, AST, TG, and γ-GT levels of the orthotopic xenografts model were
measured by ELISA. (F) H&E staining of liver, heart, spleen, lung, and kidney treated

PBMC = PBMC cytokines by ELISA; format: cell-based, healthy donor; details: 50 µM, 48 h
Method: PBMCs (Shenzhen People's Hospital. Shenzhen, China)) from a healthy donor were isolated using a density gradient centrifugation procedure. Firstly, the immune cell proportions analysis of PBMCs was measured using flow cytometry. We then investigated the effect of CY12-RP2 on the cytokines in PBMCs using ELISA assays. Briefly, PBMCs (5 × 10^5 cells/well) were cultured in 24-well plates with RPMI1640 containing 10% FBS for 24 h, and the cells were stimulated with CY12-RP2 (50 µM) for 48 h. Afterward, supernatants were collected for subsequent assays. […] The experimental results were then observed by crystal violet staining after 48 h. The levels of major inflammatory cytokines, including TNF-α, IL-1β, IL-2, TGF-β, IFN-γ, and IL-10, were measured using an ELISA kit (Shenzhen Ziker Biological Technology, Shenzen, China). Briefly, culture supernatants of cells and serum of pulmonary metastasis mouse model were respectively collected and added to an antibody pre-coated 96-well plates, and then followed up according to the manufacturer's instructions.

[2] = tested on: EMT and apoptosis signaling in A375 cells; assay: Western blot, EMT and apoptosis proteins, A375; format: cell-based; details: 0, 5, 25 μM, 48 h
Method: Melanoma cells were cultured in a 60 mm dish with a complete medium and various peptide concentrations (0 μM, 5 μM, 25 μM). Protein was extracted after cells were cultured or treated for 48 h using protein lysis buffer, separated using a 10% or 15% Bis–Tris PAGE gel (Epizyme Biomedical Technology, Shanghai, China), and transferred onto a PVDF membrane (Thermo Fisher Scientific) according to standard techniques. The Western blots were imaged using Bio-rad Chemidoc MP and quantified using ImageJ software (NIH).

[3] = tested on: B16F10-Luc melanoma allograft; format: in vivo, BALB/c mice; murine melanoma cell line; details: 100 mg/kg, tail vein, every other day for 15 days
Method: as §1

A375 cells = assay: Colony formation, A375; format: cell-based

CC(C)C[C@H](NC(=O)[C@H](Cc1ccc(O)cc1)NC(=O)[C@@H](N)[C@@H](C)O)C(=O)N[C@@H](CS)C(=O)N[C@H](C(=O)N[C@@H](C)C(=O)N[C@@H](CS)C(=O)N[C@@H](CC(=O)O)C(=O)N[C@@H](Cc1ccc(O)cc1)C(=O)N[C@H](C(=O)N[C@@H](Cc1c[nH]cn1)C(=O)N[C@@H](Cc1c[nH]cn1)C(=O)O)[C@@H](C)O)[C@@H](C)O [CY12-RP2] (H-TYLCTACDYTHH-OH; N-terminus and C-terminus assumed)
ALT [1]: not significantly changed | AST [1]: not significantly changed | TG [1]: increased | γ-GT [1]: increased | IFN-γ level in PBMC supernatant (PBMC): increased | IL-1β level in PBMC supernatant (PBMC): increased | IL-10 level in PBMC supernatant (PBMC): decreased | TGF-β level in PBMC supernatant (PBMC): decreased | TNF-α level in PBMC supernatant (PBMC): increased | expression of E-cadherin, Caspase-9, Caspase-3, and Bax [2]: significantly increased | expression of N-cadherin, vimentin, snail, and BCL2 [2]: decreased | tumor volume [3]: noticeably decreased | tumor growth (bioluminescence imaging) ([3]; vs control): significantly decreased tumor growth | colony formation (A375 cells): significantly suppress the colony formation of A375 cells in a dose-dependent manner
